“Also recorded” adds a separate entry of the source.
Legend:
[1] = system: Multiple HSV-2 (including 186); conditions: Vero, multiple HSV-2 isolates including 186; ref [32], [33]; cited from earlier work
HSV-2 186 = test: Viral replication yield reduction assay; format: cell-based, herpes simplex virus type-2 (HSV-2); conditions: selectivity index, Vero
[2] = target: human serum albumin (HSA) (Homo sapiens, UniProt P02768); test: Fluorescence titration with HSA; format: binding
Vero cells = test: Cytotoxicity in Vero cells
HSA = conditions: betulinic acid 0.01−0.1 mM, HSA 0.025 mM, fluorescence excitation at 285 nm; ref [34]; cited from earlier work
[3] = cited from earlier work
HIV-1 virus = test: Anti-HIV activity: Jurkat cells infected with HIV-1, MTT assay and RT assay; format: cell-based; conditions: 1 μg/mL or 5 μg/mL, compared with DMSO and AZT

Chain of human serum albumin (HSA) (P02768 25-609): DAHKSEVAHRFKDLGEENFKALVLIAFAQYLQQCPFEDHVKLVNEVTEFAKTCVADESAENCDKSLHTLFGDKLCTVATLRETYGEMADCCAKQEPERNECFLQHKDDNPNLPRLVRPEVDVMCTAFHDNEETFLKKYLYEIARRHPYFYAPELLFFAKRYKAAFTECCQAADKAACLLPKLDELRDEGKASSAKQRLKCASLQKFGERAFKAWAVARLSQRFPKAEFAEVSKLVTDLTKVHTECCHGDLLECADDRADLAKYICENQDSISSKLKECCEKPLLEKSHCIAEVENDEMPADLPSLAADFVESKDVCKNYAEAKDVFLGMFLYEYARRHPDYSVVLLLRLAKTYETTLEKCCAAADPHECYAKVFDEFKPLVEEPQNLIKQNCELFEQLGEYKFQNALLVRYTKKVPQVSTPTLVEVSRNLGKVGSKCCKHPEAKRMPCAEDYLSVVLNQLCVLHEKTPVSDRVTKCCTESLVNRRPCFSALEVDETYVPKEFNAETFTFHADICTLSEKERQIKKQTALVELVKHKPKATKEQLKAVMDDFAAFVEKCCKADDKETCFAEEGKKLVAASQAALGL

SMILES	IC50 [1] [nM]	SI (HSV-2 186)	Kd ([2]; Kd (285 nm), fluorescence excitation at 285 nm) [nM]	Kd ([2]; Kd (295 nm), fluorescence excitation at 295 nm) [nM]	cellular cytotoxicity (in words) (Vero cells)	binding constant with HSA (HSA) [M⁻¹]	solubility in DMSO ([3]; 25 °C, ref [23])	solubility in ethanol ([3]; 25 °C, ref [23])	solubility in water ([3]; room temperature, ref [22])	inhibitory activity of HIV-1 RT (in words) (HIV-1 virus)
Nc1nc2c(ncn2COCCO)c(=O)[nH]1 [Acyclovir]	100 to 10000									
C=C(C)[C@@H]1CC[C@]2(C(=O)O)CC[C@]3(C)[C@H](CC[C@@H]4[C@@]5(C)CC[C@H](O)C(C)(C)[C@@H]5CC[C@]43C)[C@@H]12 [Compound 1, 3β-hydroxy-lup-20(29)-en-28-oic acid]		> 62.5	4500	1300	low cytotoxicity; also recorded: minimal cellular cytotoxicity	1.685e+06	5 % (w/v)	1 % (w/v)	about 0.02 μg mL^−1	no inhibitory activity

Source: article PMC4494873 (Bioorganic & medicinal chemistry letters, 2015)
